Reference: patent US20210261524A1, “THERAPEUTIC COMPOUNDS AND COMPOSITIONS” (Exithera Pharmaceuticals, Inc., priority 2018, published 2021)

System: blood coagulation components
Details: dog, in vivo
Method: The following parameters and endpoints were evaluated in this study: mortality, body weight, physical, clinical pathology parameters (hematology and coagulation), […], and bioanalytical parameters.
The vehicle and test article were administered via intravenous (IV) infusion once on Day 1 for 135 minutes (initiated 30 minutes prior to starting the Cardiopulmonary Bypass (CPB) and continuing for 105 minutes of CPB). Group 2 animals received a […] IV bolus dose immediately prior to the start of IV infusion. Group 3, 4, and 5 animals received a 10 mg/kg IV bolus dose prior to the start of the IV infusion; with the CPB machine primed with test article at 10 μg/mL.
Infusion of the Compound 1 was started 30 minutes prior to the animal being placed on the CPB pump. The CPB pump was primed with 0.9% saline.
Venous and arterial sheaths were flushed with the Compound 1 at a concentration of 10 μg/mL. An IV bolus dose of the test article was administered immediately prior to the start of the infusion. Infusion of Compound 1 was started 30 minutes prior to the animal being placed on the CPB pump. The CPB […] was primed with 10 μg/mL of the Compound 1 prior to initiation of the CPB pump.
An IV bolus dose of the Compound 1 was administered immediately prior to the start of the infusion. […]

Which morbidity or mortality does the source give for `C[C@@H](NC(=O)N1C(=O)[C@H](Cc2ccnc(N)c2)[C@H]1C(=O)O)C1CCCCC1` [Compound 1, (2S,3R)-3-((2-aminopyridin-4-yl)methyl)-1-(((R)-1-cyclohexylethyl)carbamoyl)-4-oxoazetidine-2-carboxylic acid] here?
The morbidity or mortality was “not associated with any increases in morbidity or mortality”.

And the “mortality (survival to study termination)” value?
Its value is “All animals survived to study termination”.
